In US20060069132A1, “Azolecarboxamide herbicides” (priority 2004, published 2006):

Experiments:
bermudagrass = test: Test C pre-/postemergence herbicide test; type: in vivo, Cynodon dactylon
Summary of the method: (§1)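 Emerged plants at the 1- to 4-leaf stage (2–18 cm), or freshly planted seeds, received test chemicals in a non-phytotoxic solvent mixture with surfactant. Response was visually scored against controls after 12 to 14 days in the greenhouse, on a 0 (no effect) to 100 (complete control) scale.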

cocklebur = test: Test C pre-/postemergence herbicide test; type: in vivo, Xanthium strumarium
Summary of the method: as §1

corn = test: Test C pre-/postemergence herbicide test; type: in vivo, Zea mays
Summary of the method: as §1

kochia = test: Test C pre-/postemergence herbicide test; type: in vivo, Kochia scoparia
Summary of the method: as §1

[1] = system: common (oilseed) sunflower; test: Test C pre-/postemergence herbicide test; type: in vivo, Helianthus annuus; settings: for Plant response rating (0 = no effect, 100 = complete control), Sunflower: 62 g ai/ha; for Plant response rating (0 = no effect, 100 = complete control), Sunflower / Plant response rating, Sunflower: preemergence; for Plant response rating, Sunflower: 125 g ai/ha, scale 0 (no effect) to 100 (complete control), visual, 12 to 14 days
Summary of the method: as §1

Surinam grass = test: Test C pre-/postemergence herbicide test; type: in vivo, Urochloa decumbens
Summary of the method: as §1

goosegrass = test: Test C pre-/postemergence herbicide test; type: in vivo, Eleusine indica
Summary of the method: as §1

barnyardgrass = test: Test A pre-/postemergence herbicide test; type: in vivo, Echinochloa crus-galli
Summary of the method: (§2)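 Both application timings were run together: directed soil spray over freshly planted seeds in sandy loam, and runoff spray onto 2–10 cm seedlings. Evaluation after ~10 days in greenhouse used a 0–100 visual scale versus untreated controls.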

giant foxtail = test: Test C pre-/postemergence herbicide test; type: in vivo, Setaria faberi
Summary of the method: as §1

large crabgrass [2] = test: Test A pre-/postemergence herbicide test; type: in vivo, Digitaria sanguinalis
Summary of the method: as §2

large crabgrass [3] = test: Test C pre-/postemergence herbicide test; type: in vivo, Digitaria sanguinalis
Summary of the method: as §1

velvetleaf = test: Test A pre-/postemergence herbicide test; type: in vivo, Abutilon theophrasti
Summary of the method: as §2

[4] = 125 g ai/ha, scale 0 (no effect) to 100 (complete control), visual, 12 to 14 days, preemergence
[5] = 250 g ai/ha, scale 0 to 100 (0 no effect, 100 complete control), visual, 12 to 14 days, preemergence
[6] = Preemergence, 500 g ai/ha, scale 0 to 100, 0 no effect, 100 complete control
[7] = Postemergence, 500 g ai/ha, 0 to 100 scale, 0 no effect, 100 complete control
[8] = Postemergence, 2000 g ai/ha, 0 to 100 scale, 0 no effect, 100 complete control
[9] = Preemergence, 500 g ai/ha, visual rating, 0 to 100 scale (0 no effect, 100 complete control)
[10] = Preemergence, 2000 g ai/ha, visual rating, 0 to 100 scale (0 no effect, 100 complete control)
[11] = Postemergence, 250 g ai/ha, scale 0 to 100, 0 no effect, 100 complete control
[12] = postemergence, 125 g ai/ha, scale 0 to 100
[13] = postemergence, 31 g ai/ha, scale 0 to 100
[14] = postemergence, 62 g ai/ha, scale 0 to 100

For `CC(=NO)c1cccc(NC(=O)c2cc(C(C)(C)C)nn2C)c1` [Compound 102], the “Plant response rating (0 = no effect, 100 = complete control), Bermudagrass” value (bermudagrass; 62 g ai/ha, preemergence) was 100, the “Plant response rating, Bermudagrass” value (bermudagrass; [4]) was 100 and the “Plant response rating, Bermudagrass” value (bermudagrass; [5]) was 100. For the same compound, the “Bermudagrass plant response rating” value (bermudagrass; [6]) was 100, the “Plant response rating (0 = no effect, 100 = complete control), Cocklebur” value (cocklebur; 62 g ai/ha, preemergence) was 10 and the “Plant response rating, Cocklebur” value (cocklebur; [4]) was 20. The “Plant response rating, Cocklebur” value (cocklebur; [5]) was 20, the “Cocklebur plant response rating” value (cocklebur; [6]) was 70 and the “Plant response rating (0 = no effect, 100 = complete control), Corn” value (corn; 62 g ai/ha, preemergence) was 0. For the same compound, the “Plant response rating, Corn” value (corn; [4]) was 0, the “Plant response rating, Corn” value (corn; [5]) was 10 and the “Corn plant response rating” value (corn; [6]) was 30. The “Plant response rating (0 = no effect, 100 = complete control), Kochia” value (kochia; 62 g ai/ha, preemergence) was 0, the “Plant response rating, Kochia” value (kochia; [4]) was 30 and the “Kochia plant response rating” value (kochia; [6]) was 60. The “Plant response rating (0 = no effect, 100 = complete control), Sunflower” value [1] was 0, the “Plant response rating, Sunflower” value [1] was 20 and the “Sunflower plant response rating” value [1, 6] was 20. For the same compound, the “Plant response rating (0 = no effect, 100 = complete control), Surinam Grass” value (Surinam grass; 62 g ai/ha, preemergence) was 0, the “Surinam Grass plant response rating” value (Surinam grass; [6]) was 50 and the “Plant response rating (0 = no effect, 100 = complete control), Goosegrass” value (goosegrass; 62 g ai/ha, preemergence) was 90. For the same compound, the “Plant response rating, Goosegrass” value (goosegrass; [4]) was 100, the “Goosegrass plant response rating” value (goosegrass; [6]) was 100 and the “Barnyardgrass plant response rating” value (barnyardgrass; [7]) was 55. For the same compound, the “Plant response rating, Barnyardgrass” value (barnyardgrass; [8]) was 75, the “Barnyardgrass plant response rating” value (barnyardgrass; [9]) was 70 and the “Barnyardgrass plant response rating” value (barnyardgrass; [10]) was 85. The “Plant response rating (0 = no effect, 100 = complete control), Foxtail, Giant” value (giant foxtail; 62 g ai/ha, preemergence) was 10, the “Plant response rating, Foxtail, Giant” value (giant foxtail; [4]) was 50 and the “Plant response rating, Foxtail, Giant” value (giant foxtail; [5]) was 80. The “Foxtail, Giant plant response rating” value (giant foxtail; [6]) was 80, the “Crabgrass, Large plant response rating” value (large crabgrass [2]; [7]) was 60 and the “Plant response rating, Crabgrass, Large” value (large crabgrass [2]; [8]) was 80. For the same compound, the “Crabgrass, Large plant response rating” value (large crabgrass [2]; [9]) was 95, the “Crabgrass, Large plant response rating” value (large crabgrass [2]; [10]) was 100 and the “Plant response rating (0 = no effect, 100 = complete control), Crabgrass, Large” value (large crabgrass [3]; 62 g ai/ha, preemergence) was 100. The “Plant response rating, Crabgrass, Large” value (large crabgrass [3]; [4]) was 100, the “Plant response rating, Crabgrass, Large” value (large crabgrass [3]; [5]) was 100 and the “Crabgrass, Large plant response rating” value (large crabgrass [3]; [6]) was 100. For the same compound, the “Velvetleaf plant response rating” value (velvetleaf; [7]) was 10, the “Plant response rating, Velvetleaf” value (velvetleaf; [8]) was 20 and the “Velvetleaf plant response rating” value (velvetleaf; [9]) was 30. For the same compound, the “Velvetleaf plant response rating” value (velvetleaf; [10]) was 60.
With `CCn1nc(C(C)(C)C)cc1C(=O)Nc1cccc(C#N)c1` [Compound 139] the “Plant response rating, Bermudagrass” value (bermudagrass; 31 g ai/ha, scale 0 to 100, 0 no effect, 100 complete control, last section of Table C (species set of preemergence test)) was 10, the “Plant response rating (0 = no effect, 100 = complete control), Bermudagrass” value (bermudagrass; 62 g ai/ha, preemergence) was 60 and the “Plant response rating, Bermudagrass” value (bermudagrass; [4]) was 90. The “Plant response rating, Bermudagrass” value (bermudagrass; [5]) was 95, the “Plant response rating, Bermudagrass” value (bermudagrass; [11]) was 0 and the “Plant response rating, Bermudagrass” value (bermudagrass; [12]) was 0. The “Plant response rating, Bermudagrass” value (bermudagrass; [13]) was 0, the “Plant response rating, Bermudagrass” value (bermudagrass; [14]) was 0 and the “Plant response rating (0 = no effect, 100 = complete control), Cocklebur” value (cocklebur; 62 g ai/ha, preemergence) was 0. For the same compound, the “Plant response rating, Cocklebur” value (cocklebur; [4]) was 0, the “Plant response rating, Cocklebur” value (cocklebur; [5]) was 0 and the “Plant response rating, Cocklebur” value (cocklebur; [11]) was 10. The “Plant response rating, Cocklebur” value (cocklebur; [12]) was 10, the “Plant response rating, Cocklebur” value (cocklebur; [13]) was 5 and the “Plant response rating, Cocklebur” value (cocklebur; [14]) was 5. For the same compound, the “Plant response rating (0 = no effect, 100 = complete control), Corn” value (corn; 62 g ai/ha, preemergence) was 0, the “Plant response rating, Corn” value (corn; [4]) was 0 and the “Plant response rating, Corn” value (corn; [5]) was 15. The “Plant response rating, Corn” value (corn; [11]) was 10, the “Plant response rating, Corn” value (corn; [12]) was 10 and the “Plant response rating, Corn” value (corn; [14]) was 0. For the same compound, the “Plant response rating (0 = no effect, 100 = complete control), Kochia” value (kochia; 62 g ai/ha, preemergence) was 100, the “Plant response rating, Kochia” value (kochia; [4]) was 100 and the “Plant response rating, Kochia” value (kochia; [11]) was 50. The “Plant response rating, Kochia” value (kochia; [12]) was 50, the “Plant response rating, Kochia” value (kochia; [14]) was 50 and the “Plant response rating (0 = no effect, 100 = complete control), Sunflower” value [1] was 0. For the same compound, the “Plant response rating, Sunflower” value [1] was 10, the “Plant response rating (0 = no effect, 100 = complete control), Surinam Grass” value (Surinam grass; 62 g ai/ha, preemergence) was 0 and the “Plant response rating, Surinam Grass” value (Surinam grass; [4]) was 20. For the same compound, the “Plant response rating, Surinam Grass” value (Surinam grass; [11]) was 0, the “Plant response rating, Surinam Grass” value (Surinam grass; [12]) was 0 and the “Plant response rating, Surinam Grass” value (Surinam grass; [14]) was 0. For the same compound, the “Plant response rating (0 = no effect, 100 = complete control), Goosegrass” value (goosegrass; 62 g ai/ha, preemergence) was 60, the “Plant response rating, Goosegrass” value (goosegrass; [4]) was 85 and the “Plant response rating, Goosegrass” value (goosegrass; [11]) was 5. The “Plant response rating, Goosegrass” value (goosegrass; [12]) was 0, the “Plant response rating, Goosegrass” value (goosegrass; [14]) was 0 and the “Barnyardgrass plant response rating” value (barnyardgrass; [7]) was 35. The “Plant response rating, Barnyardgrass” value (barnyardgrass; [8]) was 60, the “Barnyardgrass plant response rating” value (barnyardgrass; [9]) was 40 and the “Barnyardgrass plant response rating” value (barnyardgrass; [10]) was 60. The “Plant response rating (0 = no effect, 100 = complete control), Foxtail, Giant” value (giant foxtail; 62 g ai/ha, preemergence) was 40, the “Plant response rating, Foxtail, Giant” value (giant foxtail; [4]) was 80 and the “Plant response rating, Foxtail, Giant” value (giant foxtail; [5]) was 95. The “Plant response rating, Foxtail, Giant” value (giant foxtail; [11]) was 10, the “Plant response rating, Foxtail, Giant” value (giant foxtail; [12]) was 0 and the “Plant response rating, Foxtail, Giant” value (giant foxtail; [14]) was 0. The “Crabgrass, Large plant response rating” value (large crabgrass [2]; [7]) was 0, the “Plant response rating, Crabgrass, Large” value (large crabgrass [2]; [8]) was 30 and the “Crabgrass, Large plant response rating” value (large crabgrass [2]; [9]) was 45. The “Crabgrass, Large plant response rating” value (large crabgrass [2]; [10]) was 75, the “Plant response rating (0 = no effect, 100 = complete control), Crabgrass, Large” value (large crabgrass [3]; 62 g ai/ha, preemergence) was 40 and the “Plant response rating, Crabgrass, Large” value (large crabgrass [3]; [4]) was 100. For the same compound, the “Plant response rating, Crabgrass, Large” value (large crabgrass [3]; [5]) was 100, the “Plant response rating, Crabgrass, Large” value (large crabgrass [3]; [11]) was 0 and the “Plant response rating, Crabgrass, Large” value (large crabgrass [3]; [12]) was 0. For the same compound, the “Plant response rating, Crabgrass, Large” value (large crabgrass [3]; [14]) was 0, the “Velvetleaf plant response rating” value (velvetleaf; [7]) was 25 and the “Plant response rating, Velvetleaf” value (velvetleaf; [8]) was 40. The “Velvetleaf plant response rating” value (velvetleaf; [10]) was 80 and the “Velvetleaf plant response rating” value (velvetleaf; preemergence, 500 g ai/ha, visual injury, 0 to 100 scale (0 no effect, 100 complete control)) was 50.
